Results on four molecules are retold here after ChEMBL document CHEMBL1127948, “Synthesis and in vitro cytotoxicity of diastereoisomerically modified dolastatin 15 analogues” (Bioorg Med Chem Lett, 1994).

Each structure is given as a SMILES string. pIC50: −log10 of the molar value.

What is called pIC50 is the IC50 on a negative log10 scale, so that one unit is a factor of ten.

One experiment deals with L1210. Briefly: In vitro growth factor-independent proliferation against murine leukemia L1210 was determined. It is filed as functional, cell-based, Mus musculus.
A further experiment concerns Jurkat. Briefly: In vitro growth factor-independent proliferation against human leukemia T cell line jurkat was determined. It is filed as functional, cell-based.
Another experiment concerns CTLL. Briefly: In vitro interleukin-2-dependent proliferation of the murine cytotoxlc T cell line (CTLL) was determined. It is filed as functional, cell-based, Mus musculus.
In the next experiment the test system is Osteoclast-like. Briefly: In vitro growth factor-dependent proliferation against murine bone marrow cell was determined. It is filed as functional, cell-based, Mus musculus.
Experiment [1] concerns Panel leukemia (Carcinoma cell lines). Briefly: Antiproliferative effect against continuous human leukemia cell lines and peripheral blood cells from patients with acute myeloid leukemia was determined; (0.1 to 1 nM). It is filed as functional, cell-based.
In another experiment the test system is Lymphoma cell line. Briefly: Antiproliferative effect against human lymphoma cells was determined; (0.012 to 0.12 nM). It is filed as functional, cell-based.

On to `COC1=CC(=O)N(C(=O)[C@H](OC(=O)[C@@H]2CCCN2C(=O)[C@@H]2CCCN2C(=O)[C@H](C(C)C)N(C)C(=O)[C@@H](NC(=O)[C@H](C(C)C)N(C)C)C(C)C)C(C)C)[C@@H]1Cc1ccccc1`, for which the pIC50 with L1210 (Mus musculus, L1210) was 8.75; in the experiment with Jurkat, 6.15; in the experiment on CTLL (Mus musculus, CTLL) it was 6.40; in the experiment with Osteoclast-like (Mus musculus, Osteoclast-like), 6.92.

In the case of `COC1=CC(=O)N(C(=O)[C@H](OC(=O)[C@@H]2CCCN2C(=O)[C@@H]2CCCN2C(=O)[C@H](C(C)C)N(C)C(=O)[C@@H](NC(=O)[C@H](C(C)C)N(C)C)C(C)C)C(C)C)[C@H]1Cc1ccccc1` (stereo in doubt; form 1), the pIC50 in the experiment with L1210 (Mus musculus, L1210) was 9.52; in the experiment with Jurkat, 8.00; in the experiment on CTLL (Mus musculus, CTLL) it was 8.10; in the experiment with Osteoclast-like (Mus musculus, Osteoclast-like), 7.40.

Take `COC1=CC(=O)N(C(=O)[C@H](OC(=O)[C@@H]2CCCN2C(=O)[C@@H]2CCCN2C(=O)[C@H](C(C)C)N(C)C(=O)[C@@H](NC(=O)[C@H](C(C)C)N(C)C)C(C)C)C(C)C)[C@H]1Cc1ccccc1` (stereo in doubt; form 2): the negative logarithm of the IC50 (pIC50) in the experiment with L1210 (l1210) was 9.51; in the experiment on CTLL (ctll), 8.00; in the experiment on Osteoclast-like (osteoclast-like), 7.30.

With `COC1=CC(=O)N(C(=O)[C@@H](OC(=O)[C@@H]2CCCN2C(=O)[C@@H]2CCCN2C(=O)[C@H](C(C)C)N(C)C(=O)[C@@H](NC(=O)[C@H](C(C)C)N(C)C)C(C)C)C(C)C)[C@H]1Cc1ccccc1` [DOLASTATIN 15], the pIC50 in the experiment on L1210 (Mus musculus, L1210) was 9.82; with Jurkat, 8.30; in experiment [1] it was 10.00; with CTLL (Mus musculus, CTLL) it was 8.52; in the experiment on Osteoclast-like (Mus musculus, Osteoclast-like) it was 7.77; with Lymphoma cell line it was 10.92.
